Among the test systems are SF-268; A549; MDA-N; MDA-MB-435; Malme-3M; CAKI-1; SF-539; OVCAR-8; NCI-H522; MDA-MB-231; HCT-116; RPMI-8226; HOP-62; SN12C; UACC-62; MOLT-4; KM12; UO-31; 786-0; SNB-19.
Assay in all cases: growth of human tumour cells (NCI), 48 h

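Following 48 hours of exposure in 96-well plates, responses at five concentrations were used to interpolate endpoints linearly. The concentration for 50% growth inhibition is given as GI50.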 Activity calls are given as the source filed them. Cut-off read from the data, not from the text of the source: active = GI50 up to about 1.1 µM and inactive = higher.

Take `COc1ccc2nc3cc(Cl)ccc3c(NCCCCCC(=O)NC(COc3cnc4c(ccc5cccnc54)c3)COc3cnc4c(ccc5cccnc54)c3)c2c1`: the GI50 in the test on SF-268 is 12.8 µM (inactive); in the test with A549, 29.1 µM (inactive); in the test on MDA-N, 19 µM (inactive); in the test with MDA-MB-435, 18.5 µM (inactive); in the test with Malme-3M, 34.9 µM (inactive); in the test with CAKI-1, 36.1 µM (inactive). Also, the GI50 was 10.9 µM (inactive) in the test with SF-539; 31.4 µM (inactive) with OVCAR-8; 26.9 µM (inactive) in the test on NCI-H522; 6.34 µM (inactive) with MDA-MB-231; 3.94 µM (inactive) in the test on HCT-116; 5.65 µM (inactive) in the test with RPMI-8226. Besides, the GI50 with HOP-62 was 15.7 µM (inactive); with SN12C, 22.9 µM (inactive); in the test on UACC-62, 21.4 µM (inactive); in the test on MOLT-4, 1.65 µM (inactive); in the test with KM12 it was 5.92 µM (inactive); in the test with UO-31 it was 74.5 µM (inactive). For the same molecule, the figures for the GI50 in the test with 786-0 and with SNB-19 were 11 µM (inactive) and 13.6 µM (inactive), respectively.

Turning to `CC(C)Cc1ccc(C(C)/C=C2\CCC(CN3CCCCC3)C2=O)cc1` (centres undefined), the GI50 was 3.66 µM (inactive) in the test with SF-268; 20 µM (inactive) in the test on A549; 3.7 µM (inactive) in the test with MDA-N; 13.6 µM (inactive) in the test on MDA-MB-435; 16.6 µM (inactive) in the test with Malme-3M; 6.87 µM (inactive) in the test with CAKI-1. The GI50 in the test with SF-539 was 4.54 µM (inactive); in the test on OVCAR-8 it was 5.18 µM (inactive); in the test on NCI-H522, 1.35 µM (inactive); with MDA-MB-231, 4.89 µM (inactive); in the test with HCT-116 it was 3.87 µM (inactive); in the test on RPMI-8226, 0.611 µM (active). Besides, the GI50 was 8.69 µM (inactive) in the test on HOP-62; 2.12 µM (inactive) with SN12C; 10.5 µM (inactive) in the test on UACC-62; 1.63 µM (inactive) in the test with MOLT-4; 2.56 µM (inactive) in the test on KM12; 10.6 µM (inactive) in the test with UO-31. Further, the GI50 in the test on 786-0 was 1.85 µM (inactive); with SNB-19 it was 12 µM (inactive).

In the case of `CC(NC1=NCCO1)c1ccccc1Cl` (centres undefined), the GI50 with SF-268, with A549, in the test with MDA-N, in the test on MDA-MB-435, in the test with Malme-3M and in the test on CAKI-1 was > 100 µM (inactive) throughout. Moreover, the GI50 was 27.2 µM (inactive) in the test on SF-539; > 100 µM (inactive) with OVCAR-8; > 100 µM (inactive) with NCI-H522; > 100 µM (inactive) in the test with MDA-MB-231; 60.4 µM (inactive) with HCT-116; > 100 µM (inactive) with RPMI-8226. The GI50 in the test on HOP-62 is > 100 µM (inactive); in the test on SN12C it was > 100 µM (inactive); in the test with UACC-62, > 100 µM (inactive); in the test with MOLT-4, 91.8 µM (inactive); in the test with KM12, > 100 µM (inactive); in the test on UO-31 it was > 100 µM (inactive). In addition, the GI50 with 786-0 and with SNB-19 was > 100 µM (inactive) in each case.

For the molecule `C=C(Cl)C(Cl)(CBr)CCCC(C)C` (centres undefined), the GI50 with SF-268 was 15.1 µM (inactive); in the test on A549, 21.4 µM (inactive); in the test on MDA-N, 22 µM (inactive); in the test with MDA-MB-435, 37.5 µM (inactive); with Malme-3M, > 100 µM (inactive); in the test on CAKI-1, 5.81 µM (inactive). Besides, the GI50 is 9.98 µM (inactive) with SF-539; 20.7 µM (inactive) in the test with OVCAR-8; > 100 µM (inactive) in the test on NCI-H522; 20.7 µM (inactive) in the test with MDA-MB-231; 6.47 µM (inactive) in the test on HCT-116; 2.92 µM (inactive) in the test on RPMI-8226. Also, the GI50 with HOP-62 is 13.7 µM (inactive); with SN12C, > 100 µM (inactive); with UACC-62, > 63.5 µM (inactive); with MOLT-4, > 100 µM (inactive); in the test with KM12, 11.8 µM (inactive); in the test with UO-31, 16.3 µM (inactive). The GI50 in the test with 786-0 was 9.66 µM (inactive); in the test on SNB-19, 18.7 µM (inactive).

With `CNC(=O)OCc1c(COC(=O)NC)c(-c2ccc(-c3ccccc3)cc2)n(C)c1C`, the GI50 with SF-268 was 0.755 µM (active); in the test on A549, 1.9 µM (inactive); in the test with MDA-N it was 4.34 µM (inactive); in the test with MDA-MB-435 it was 5.41 µM (inactive); in the test with Malme-3M, 1.15 µM (inactive); with CAKI-1 it was 0.443 µM (active). Further, the GI50 with SF-539 is 1.86 µM (inactive); in the test on OVCAR-8 it was 2.26 µM (inactive); in the test on NCI-H522, 1.58 µM (inactive); with MDA-MB-231, 2.69 µM (inactive); in the test on HCT-116, 2.64 µM (inactive); with RPMI-8226, 0.467 µM (active). Besides, the GI50 is 2.79 µM (inactive) in the test on HOP-62; 0.726 µM (active) in the test on SN12C; 1.64 µM (inactive) with UACC-62; 0.299 µM (active) in the test on MOLT-4; 8.04 µM (inactive) in the test on KM12; 1.18 µM (inactive) in the test on UO-31. For the same molecule, the GI50 with 786-0 is 1.56 µM (inactive); in the test on SNB-19 it was 3.33 µM (inactive).

As to `COc1cc2c(cc1OC)C1=Cc3ccc(OC)c(OC)c3C(C#N)N1CC2` (centres undefined), the GI50 was 29.7 µM (inactive) in the test on SF-268; 56.4 µM (inactive) with A549; 33.7 µM (inactive) in the test on MDA-N; 25.9 µM (inactive) in the test with MDA-MB-435; 22.4 µM (inactive) in the test with Malme-3M; > 100 µM (inactive) with CAKI-1. Also, the GI50 in the test on SF-539 is 13.8 µM (inactive); in the test on NCI-H522 it was 30 µM (inactive); in the test with MDA-MB-231, 28.8 µM (inactive); in the test on HCT-116, 36.1 µM (inactive); in the test with RPMI-8226 it was 20.7 µM (inactive); in the test on HOP-62, 42.4 µM (inactive). The GI50 in the test with SN12C is 35.2 µM (inactive); in the test on UACC-62, 17.1 µM (inactive); with MOLT-4 it was 33.1 µM (inactive); in the test on KM12, 21.1 µM (inactive); in the test on UO-31, > 100 µM (inactive); in the test with 786-0, 78.5 µM (inactive). In addition, the GI50 in the test on SNB-19 is 41.3 µM (inactive).

With `C=C(C(=O)O[C@H]1C/C(C)=C/CC/C(CO)=C/[C@H]2C(=O)OC(=C)[C@H]12)C(O)CO` (some centres undefined), the GI50 with SF-268 is 18.7 µM (inactive); in the test with A549 it was 22.9 µM (inactive); in the test on MDA-N, 11.7 µM (inactive); with MDA-MB-435, 9.59 µM (inactive); in the test with Malme-3M, 5.16 µM (inactive); with CAKI-1, 4.46 µM (inactive). For the same molecule, the GI50 in the test with SF-539 is 4.71 µM (inactive); in the test on OVCAR-8, 15.2 µM (inactive); in the test on NCI-H522, 1.68 µM (inactive); in the test with MDA-MB-231 it was 17.9 µM (inactive); with HCT-116, 7.18 µM (inactive); in the test on RPMI-8226 it was 2 µM (inactive). For the same molecule, the GI50 is 24.5 µM (inactive) in the test on HOP-62; 15.3 µM (inactive) in the test on SN12C; 17.5 µM (inactive) in the test with UACC-62; 5.37 µM (inactive) in the test on MOLT-4; 20.4 µM (inactive) in the test with KM12; 8.18 µM (inactive) in the test with UO-31. For the same molecule, the GI50 in the test on 786-0 was 5.98 µM (inactive); in the test on SNB-19, 21.4 µM (inactive).

With `FC(F)(F)c1nc2ccc(SSc3ccc4nc(C(F)(F)F)[nH]c4c3)cc2[nH]1`, the GI50 in the test on SF-268 is > 10 µM (inactive); in the test with A549, 42.3 µM (inactive); with MDA-N, 80.5 µM (inactive); in the test on MDA-MB-435, 40.6 µM (inactive); with Malme-3M it was > 10 µM (inactive); in the test with CAKI-1, > 10 µM (inactive). The GI50 in the test on SF-539 is 41.8 µM (inactive); in the test with OVCAR-8, 92.3 µM (inactive); in the test with NCI-H522 it was 49 µM (inactive); in the test with MDA-MB-231, 23 µM (inactive); in the test on HCT-116 it was > 10 µM (inactive); with RPMI-8226, 25.1 µM (inactive). For the same molecule, the GI50 in the test with HOP-62 is 31.6 µM (inactive); in the test on SN12C, 46.7 µM (inactive); in the test on UACC-62, 73.8 µM (inactive); in the test on MOLT-4, 27.3 µM (inactive); with KM12, > 10 µM (inactive); in the test with UO-31, 31.6 µM (inactive). Moreover, the GI50 was 50.5 µM (inactive) in the test with 786-0 and > 10 µM (inactive) in the test on SNB-19.

With `Cc1ccc2c(O)cc(-c3ccc(C)s3)nc2n1`, the GI50 was 2.34 µM (inactive) with SF-268; 0.531 µM (active) in the test with A549; 0.0213 µM (active) in the test on MDA-N; 0.0264 µM (active) in the test with MDA-MB-435; 0.94 µM (active) with Malme-3M; 0.811 µM (active) with CAKI-1. For the same molecule, the GI50 is 0.325 µM (active) in the test with SF-539; 0.652 µM (active) with OVCAR-8; 0.219 µM (active) in the test on NCI-H522; 1.73 µM (inactive) in the test with MDA-MB-231; 0.295 µM (active) in the test with HCT-116; 0.248 µM (active) with RPMI-8226. Moreover, the GI50 was 1.07 µM (active) in the test on HOP-62; 0.556 µM (active) with SN12C; 0.35 µM (active) in the test on UACC-62; 0.624 µM (active) in the test with MOLT-4; 0.0912 µM (active) in the test on KM12; 0.439 µM (active) in the test on UO-31. The GI50 in the test with 786-0 is 0.443 µM (active); in the test on SNB-19, 0.644 µM (active).

`CCc1nc(N)nc(N)c1-c1ccc(Cl)c([N+](=O)[O-])c1`: the GI50 is 0.239 µM (active) in the test on SF-268; 0.0218 µM (active) in the test on A549; 0.0764 µM (active) in the test with MDA-N; 0.0752 µM (active) in the test on MDA-MB-435; 18.4 µM (inactive) in the test with Malme-3M; 0.242 µM (active) in the test with CAKI-1. In addition, the GI50 was 0.325 µM (active) in the test on SF-539; 0.074 µM (active) in the test with OVCAR-8; 0.719 µM (active) in the test with NCI-H522; 24.4 µM (inactive) in the test on MDA-MB-231; 0.0224 µM (active) with HCT-116; 0.676 µM (active) in the test on RPMI-8226. The GI50 with HOP-62 is 0.596 µM (active); in the test on SN12C, 1.79 µM (inactive); in the test on UACC-62, 0.0573 µM (active); with MOLT-4, 0.258 µM (active); in the test with KM12, 0.535 µM (active); in the test on UO-31 it was 1.18 µM (inactive). For the same molecule, the GI50 is 0.0869 µM (active) with 786-0 and 10.5 µM (inactive) in the test with SNB-19.
